Assay results published in patent US20230174584A1, “Antibiotic Compounds” (priority 2019, published 2023).

Columns and labels:
Assay in all cases: MIC assay
Format in all cases: cell-based, Enterococcus faecium
E. faecium EO321 = test system: E. faecium EO321
Procedure, shortened: (§1)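 Inoculum 10^6 CFU/mL in TSB/0.002% p80 (Enterococcus, VISA, VRSA pre-grown to 0.5 McFarland). 2-fold dilutions, 1:1 with inoculum. 37 °C × 24 h, 600 rpm, sealed breathable membrane. MIC median of ≥3.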

E. faecium E0300 = test system: E. faecium E0300
Procedure, shortened: as §1

E. faecium E8218 = test system: E. faecium E8218
Procedure, shortened: as §1

E. faecium E2373 = test system: E. faecium E2373
Procedure, shortened: as §1

E. faecium E2365 = test system: E. faecium E2365
Procedure, shortened: as §1

E. faecium E6016 = test system: E. faecium E6016
Procedure, shortened: as §1

E. faecium E0745 = test system: E. faecium E0745
Procedure, shortened: as §1

E. faecium E1130 = test system: E. faecium E1130
Procedure, shortened: as §1

E. faecium E7424 = test system: E. faecium E7424
Procedure, shortened: as §1

E. faecium E0072 = test system: E. faecium E0072
Procedure, shortened: as §1

E. faecium E8235 = test system: E. faecium E8235
Procedure, shortened: as §1

E. faecium E7413 = test system: E. faecium E7413
Procedure, shortened: as §1

E. faecium E7329 = test system: E. faecium E7329
Procedure, shortened: as §1

E. faecium E2297 = test system: E. faecium E2297
Procedure, shortened: as §1

E. faecium E1679 = test system: E. faecium E1679
Procedure, shortened: as §1

E. faecium E7319 = test system: E. faecium E7319
Procedure, shortened: as §1

E. faecium E8237 = test system: E. faecium E8237
Procedure, shortened: as §1

E. faecium E0506 = test system: E. faecium E0506
Procedure, shortened: as §1

E. faecium E7464 = test system: E. faecium E7464
Procedure, shortened: as §1

E. faecium E7401 = test system: E. faecium E7401
Procedure, shortened: as §1

E. faecium E0013 = test system: E. faecium E0013
Procedure, shortened: as §1

Measured: MIC

CCCCCCCCNC(N)=Nc1ccc(CN[C@@]2(C)C[C@H](O[C@H]3[C@H](Oc4c5cc6cc4Oc4ccc(cc4Cl)[C@@H](O)[C@@H](NC(=O)[C@@H](CC(C)C)NC)C(=O)N[C@@H](CC(N)=O)C(=O)N[C@H]6C(=O)N[C@H]4C(=O)N[C@H](C(=O)N[C@H](C(=O)O)c6cc(O)cc(O)c6-c6cc4ccc6O)[C@H](O)c4ccc(c(Cl)c4)O5)O[C@H](CO)[C@@H](O)[C@@H]3O)O[C@@H](C)[C@H]2O)cc1 [Compound 6]
8 µg/mL: E. faecium E1679; E. faecium E1679, VanA
0.25 µg/mL: E. faecium E0745; E. faecium E0745, VanA
4 µg/mL: E. faecium EO321; E. faecium EO321, VanA | E. faecium E7413; E. faecium E7413, VanA
≤0.008 µg/mL: E. faecium E8218; E. faecium E8218, VanB | E. faecium E2365; E. faecium E2365, VanB | E. faecium E1130; E. faecium E1130, VanA | E. faecium E7424; E. faecium E7424, VanB | E. faecium E8235; E. faecium E8235, VanB | E. faecium E7329; E. faecium E7329, VanA | E. faecium E7464; E. faecium E7464, VanB | E. faecium E7401; E. faecium E7401, VanB
0.125 µg/mL: E. faecium E7319; E. faecium E7319, VanA
1 µg/mL: E. faecium E2297; E. faecium E2297, VanA | E. faecium E0013; E. faecium E0013, VanA
0.5 µg/mL: E. faecium E6016; E. faecium E6016, VanA | E. faecium E0072; E. faecium E0072, VanA
2 µg/mL: E. faecium E0300; E. faecium E0300, VanA | E. faecium E2373; E. faecium E2373, VanA | E. faecium E8237; E. faecium E8237, VanA | E. faecium E0506; E. faecium E0506, VanA

CCCCCCN(CCCCCC)C(N)=Nc1ccc(CN[C@@]2(C)C[C@H](O[C@H]3[C@H](Oc4c5cc6cc4Oc4ccc(cc4Cl)[C@@H](O)[C@@H](NC(=O)[C@@H](CC(C)C)NC)C(=O)N[C@@H](CC(N)=O)C(=O)N[C@H]6C(=O)N[C@H]4C(=O)N[C@H](C(=O)N[C@H](C(=O)O)c6cc(O)cc(O)c6-c6cc4ccc6O)[C@H](O)c4ccc(c(Cl)c4)O5)O[C@H](CO)[C@@H](O)[C@@H]3O)O[C@@H](C)[C@H]2O)cc1 [Compound 12]
8 µg/mL: E. faecium E1679; E. faecium E1679, VanA
1 µg/mL: E. faecium E0300; E. faecium E0300, VanA | E. faecium E2373; E. faecium E2373, VanA | E. faecium E2297; E. faecium E2297, VanA | E. faecium E0506; E. faecium E0506, VanA
2 µg/mL: E. faecium EO321; E. faecium EO321, VanA | E. faecium E7413; E. faecium E7413, VanA | E. faecium E8237; E. faecium E8237, VanA | E. faecium E0013; E. faecium E0013, VanA
≤0.008 µg/mL: E. faecium E8218; E. faecium E8218, VanB | E. faecium E2365; E. faecium E2365, VanB | E. faecium E1130; E. faecium E1130, VanA | E. faecium E7424; E. faecium E7424, VanB | E. faecium E8235; E. faecium E8235, VanB | E. faecium E7329; E. faecium E7329, VanA | E. faecium E7464; E. faecium E7464, VanB | E. faecium E7401; E. faecium E7401, VanB
0.5 µg/mL: E. faecium E6016; E. faecium E6016, VanA
0.25 µg/mL: E. faecium E0745; E. faecium E0745, VanA | E. faecium E0072; E. faecium E0072, VanA | E. faecium E7319; E. faecium E7319, VanA

CN[C@H](CC(C)C)C(=O)N[C@H]1C(=O)N[C@@H](CC(N)=O)C(=O)N[C@H]2C(=O)N[C@H]3C(=O)N[C@H](C(=O)N[C@H](C(=O)O)c4cc(O)cc(O)c4-c4cc3ccc4O)[C@H](O)c3ccc(c(Cl)c3)Oc3cc2cc(c3O[C@@H]2O[C@H](CO)[C@@H](O)[C@H](O)[C@H]2O[C@H]2C[C@](C)(NCc3ccc(N=C(N)NC/C=C(\C)CCC=C(C)C)cc3)[C@H](O)[C@H](C)O2)Oc2ccc(cc2Cl)[C@H]1O [Compound 14]
2 µg/mL: E. faecium E6016; E. faecium E6016, VanA | E. faecium E2297; E. faecium E2297, VanA | E. faecium E0506; E. faecium E0506, VanA | E. faecium E0013; E. faecium E0013, VanA
4 µg/mL: E. faecium E0300; E. faecium E0300, VanA | E. faecium E2373; E. faecium E2373, VanA | E. faecium E8237; E. faecium E8237, VanA
1 µg/mL: E. faecium E0745; E. faecium E0745, VanA
8 µg/mL: E. faecium EO321; E. faecium EO321, VanA | E. faecium E7413; E. faecium E7413, VanA
16 µg/mL: E. faecium E1679; E. faecium E1679, VanA
0.5 µg/mL: E. faecium E0072; E. faecium E0072, VanA | E. faecium E7319; E. faecium E7319, VanA
≤0.008 µg/mL: E. faecium E8218; E. faecium E8218, VanB | E. faecium E2365; E. faecium E2365, VanB | E. faecium E1130; E. faecium E1130, VanA | E. faecium E7424; E. faecium E7424, VanB | E. faecium E8235; E. faecium E8235, VanB | E. faecium E7329; E. faecium E7329, VanA | E. faecium E7464; E. faecium E7464, VanB | E. faecium E7401; E. faecium E7401, VanB

CN[C@H](CC(C)C)C(=O)N[C@H]1C(=O)N[C@@H](CC(N)=O)C(=O)N[C@H]2C(=O)N[C@H]3C(=O)N[C@H](C(=O)N[C@H](C(=O)O)c4cc(O)cc(O)c4-c4cc3ccc4O)[C@H](O)c3ccc(c(Cl)c3)Oc3cc2cc(c3O[C@@H]2O[C@H](CO)[C@@H](O)[C@H](O)[C@H]2O[C@H]2C[C@](C)(N)[C@H](O)[C@H](C)O2)Oc2ccc(cc2Cl)[C@H]1O [Vancomycin, reference compound]
1 µg/mL: E. faecium E7329; Enterococcus faecium, E7329
4 µg/mL: E. faecium E7424; Enterococcus faecium, E7424
> 128 µg/mL: E. faecium EO321; Enterococcus faecium, EO321 | E. faecium E0300; Enterococcus faecium, E0300 | E. faecium E2373; Enterococcus faecium, E2373 | E. faecium E6016; Enterococcus faecium, E6016 | E. faecium E0745; Enterococcus faecium, E0745 | E. faecium E1130; Enterococcus faecium, E1130 | E. faecium E0072; Enterococcus faecium, E0072 | E. faecium E7413; Enterococcus faecium, E7413 | E. faecium E2297; Enterococcus faecium, E2297 | E. faecium E1679; Enterococcus faecium, E1679 | E. faecium E7319; Enterococcus faecium, E7319 | E. faecium E8237; Enterococcus faecium, E8237 | E. faecium E0506; Enterococcus faecium, E0506 | E. faecium E0013; Enterococcus faecium, E0013
8 µg/mL: E. faecium E8218; Enterococcus faecium, E8218
16 µg/mL: E. faecium E2365; Enterococcus faecium, E2365 | E. faecium E8235; Enterococcus faecium, E8235 | E. faecium E7464; Enterococcus faecium, E7464 | E. faecium E7401; Enterococcus faecium, E7401

CCCCCCCCCNC(N)=Nc1ccc(CN[C@@]2(C)C[C@H](O[C@H]3[C@H](Oc4c5cc6cc4Oc4ccc(cc4Cl)[C@@H](O)[C@@H](NC(=O)[C@@H](CC(C)C)NC)C(=O)N[C@@H](CC(N)=O)C(=O)N[C@H]6C(=O)N[C@H]4C(=O)N[C@H](C(=O)N[C@H](C(=O)O)c6cc(O)cc(O)c6-c6cc4ccc6O)[C@H](O)c4ccc(c(Cl)c4)O5)O[C@H](CO)[C@@H](O)[C@@H]3O)O[C@@H](C)[C@H]2O)cc1 [Compound 7]
0.25 µg/mL: E. faecium E6016; E. faecium E6016, VanA
4 µg/mL: E. faecium E1679; E. faecium E1679, VanA
1 µg/mL: E. faecium EO321; E. faecium EO321, VanA | E. faecium E8237; E. faecium E8237, VanA
≤0.008 µg/mL: E. faecium E8218; E. faecium E8218, VanB | E. faecium E2365; E. faecium E2365, VanB | E. faecium E1130; E. faecium E1130, VanA | E. faecium E7424; E. faecium E7424, VanB | E. faecium E8235; E. faecium E8235, VanB | E. faecium E7329; E. faecium E7329, VanA | E. faecium E7464; E. faecium E7464, VanB | E. faecium E7401; E. faecium E7401, VanB
0.063 µg/mL: E. faecium E7319; E. faecium E7319, VanA
0.125 µg/mL: E. faecium E0745; E. faecium E0745, VanA | E. faecium E0072; E. faecium E0072, VanA
0.5 µg/mL: E. faecium E0300; E. faecium E0300, VanA | E. faecium E2373; E. faecium E2373, VanA | E. faecium E2297; E. faecium E2297, VanA | E. faecium E0506; E. faecium E0506, VanA | E. faecium E0013; E. faecium E0013, VanA
2 µg/mL: E. faecium E7413; E. faecium E7413, VanA

CCCCCCCNC(N)=Nc1ccc(CN[C@@]2(C)C[C@H](O[C@H]3[C@H](Oc4c5cc6cc4Oc4ccc(cc4Cl)[C@@H](O)[C@@H](NC(=O)[C@@H](CC(C)C)NC)C(=O)N[C@@H](CC(N)=O)C(=O)N[C@H]6C(=O)N[C@H]4C(=O)N[C@H](C(=O)N[C@H](C(=O)O)c6cc(O)cc(O)c6-c6cc4ccc6O)[C@H](O)c4ccc(c(Cl)c4)O5)O[C@H](CO)[C@@H](O)[C@@H]3O)O[C@@H](C)[C@H]2O)cc1 [Compound 5]
0.25 µg/mL: E. faecium E0072; E. faecium E0072, VanA
≤0.008 µg/mL: E. faecium E8218; E. faecium E8218, VanB | E. faecium E2365; E. faecium E2365, VanB | E. faecium E1130; E. faecium E1130, VanA | E. faecium E7424; E. faecium E7424, VanB | E. faecium E8235; E. faecium E8235, VanB | E. faecium E7329; E. faecium E7329, VanA | E. faecium E7464; E. faecium E7464, VanB | E. faecium E7401; E. faecium E7401, VanB
8 µg/mL: E. faecium EO321; E. faecium EO321, VanA | E. faecium E7413; E. faecium E7413, VanA | E. faecium E8237; E. faecium E8237, VanA
4 µg/mL: E. faecium E0300; E. faecium E0300, VanA | E. faecium E2373; E. faecium E2373, VanA | E. faecium E0013; E. faecium E0013, VanA
2 µg/mL: E. faecium E2297; E. faecium E2297, VanA | E. faecium E0506; E. faecium E0506, VanA
0.5 µg/mL: E. faecium E7319; E. faecium E7319, VanA
1 µg/mL: E. faecium E6016; E. faecium E6016, VanA | E. faecium E0745; E. faecium E0745, VanA
16 µg/mL: E. faecium E1679; E. faecium E1679, VanA
